Tests used:
[1] = test system: rat liver mitochondria (RLM); test: Mitochondrial respiration of isolated RLM (Clark-type oxygen electrode); type: biochemical; settings: for effect on state 3 respiration: all tested concentrations (2.5-10 μM), FIG. 6B-H
Experimental: In an embodiment, and as an example, AntiOxCINs and MitoQ toxicity effects on the mitochondrial bioenergetics, namely on RLM ΔΨ and mitochondrial respiration parameters, were measured. The […] represents the main component of the electrochemical gradient generated by mitochondrial respiration and accounts for more than 90% of the total available energy. For mitochondrial respiration assays, glutamate/malate (for complex I) and succinate (for complex II) were used as substrates. In addition, the mitochondrial oxidative phosphorylation coupling index, known as respiratory control ratio (RCR, state 3/state 4 respiration) and ADP/O index (the coupling between ATP synthesis and oxygen consumption) were also calculated. AntiOxCINs and MitoQ were tested at antioxidant-relevant concentrations, with 10 μM being the highest concentration.
In an embodiment, the evaluation of AntiOxCINs functional mitochondrial toxicity profile was performed in rat liver mitochondria (RLM). […] The protein concentration was determined by the biuret assay using BSA as a standard.
In an embodiment, the evaluation of AntiOxCINs effect on mitochondrial respiration was performed as follows: the respiration of isolated RLM was evaluated polarographically with a Clark-type oxygen electrode, connected to a suitable recorder in a 1 mL thermostated water-jacketed chamber with magnetic stirring, at 37° C.^1. […] Increasing concentrations of AntiOxCINs (2.5-10 μM) were added to the reaction medium containing respiratory substrates glutamate/malate (10 mM and 5 mM respectively) or succinate (5 mM) and RLM (1 mg) and allowed to incubate for a 5 min period prior to the assay. State 2 was considered as the respiration during the 5 min incubation time with AntiOxCINs. […] State 4 was determined after ADP phosphorylation finished. Subsequent addition of oligomycin (2 μg/ml) inhibited ATP-synthase and originated the oligomycin-inhibition respiration state. Finally, 1 μM FCCP was added to induce uncoupled respiration.

[2] = Redox properties by differential pulse and cyclic voltammetry; type: physicochemical; settings: for reversibility of the oxidation reaction: cyclic voltammetry, physiological pH; for Ep (redox potential): physiological pH (7.4), voltammetry
Experimental: In an embodiment, and as an example, AntiOxCINs redox properties were evaluated (Table 1). Redox potentials are correlated with the ability of an antioxidant to donate a hydrogen atom and/or an electron to a free radical.
However, for pyrogallol derivatives (AntiOxCIN4, AntiOxCIN5 and AntiOxCIN7), a significant decrease in redox potentials was observed (Ep=0.034-0.057 V) (Table 1).
The voltammograms presented a diffusion peak and an adsorption post-peak at a more anodic potential correspondent to the oxidation of dissolved and adsorbed forms of the compounds, respectively. The oxidation waves can be related to the oxidation process of the pyrogallol moiety. The cyclic voltammograms also show the presence of two overlapped anodic peaks. The anodic peaks appeared to correspond to irreversible processes as any distinct reduction wave was not seen on the cathodic sweep. The existence of the additional phenolic group in the pyrogallol systems, when compared with the catechol ones, seems to influence the stabilization of the semiquinone intermediate and in turn the oxidative mechanism.
In an embodiment, the electrochemical analytical data was obtained using a computer controlled potentiostat Autolab PGSTAT302N (Metrohm Autolab, Utrecht, Netherlands). Generally, cyclic voltammetry (CV) data was acquired at a scan rate of 50 mVs^−1. Differential pulse voltammetry (DPV) results were acquired at a step potential of 4 mV, pulse amplitude of 50 mV and scan rate of 8 mVs^−1. The electrochemical signals were monitored by the General Purpose Electrochemical System (GPES) version 4.9, software package. All electrochemical experiments were performed at room temperature in an electrochemical cell that was placed in a Faraday cage in order to minimize the contribution of background noise to the analytical signal.
In an embodiment, the process of evaluation of AntiOxCINs redox properties was conducted as follows: stock solutions of each compound (10 mM) were prepared by dissolving the appropriate amount in ethanol. The voltammetric working solutions were prepared in the electrochemical cell, at a final concentration of 0.1 mM. The […] supporting electrolyte was prepared by diluting […] to 100 mL. Voltammetric data was acquired in a three-electrode system consisting of a glassy carbon electrode (GCE, d=2 mm) as working electrode, a counter electrode of platinum wire and a saturated Ag/AgCl reference electrode. In an embodiment, the evaluation of AntiOxCINs lipophilic properties was performed as follows: the electrochemical cell was a four-electrode system with arrays of micro liquid-liquid interfaces (μlTIES) containing two Ag/AgCl reference electrodes and two counter electrodes of Pt, one in each phase. The microporous membrane was sealed with a fluorosilicone sealant (Dow Corning 730) onto a glass cylinder which was filled with 4.0 mL of the aqueous phase, where the aliquots of AntiOxCINs solutions were added. The membrane was then immersed into the organic phase contained in the cell. The organic phase reference solution (a 2 mM BTPPACI+2 mM NaCl aqueous solution) was mechanically stabilized The aqueous supporting electrolyte solution was a Tris-HCl buffer 10 mM pH 7.0.

[3] = DPPH radical scavenging activity (TAC assay); type: biochemical; settings: ethanol, absorbance 515 nm
Description: In an embodiment, the AntiOxCINs antioxidant ranking activity hierarchy was established by in vitro non-cell methods. The selected total antioxidant capacity (TAC) assays (DPPH, ABTS and GO) involved the spectrophotometric measurement of the radical absorbance decrease as a result of an in situ radical deactivation by an antioxidant. Compounds with higher antioxidant activity display lower IC50 values. […] This decrease was attenuated/ameliorated by the increment of the spacer length and/or the introduction of additional hydroxyl group in the aromatic ring.
The radical scavenging activity of AntiOxCINs was evaluated by means of total antioxidant capacity assays based on DPPH., ABTS.^+ and GO. radicals. All these methods involved the spectrophotometric measurement of the absorbance decrease resulting from radical (DPPH., ABTS.^+ or GO.) deactivation with an antioxidant. The results were expressed in IC50, which is defined as the minimum antioxidant concentration necessary to reduce the amount of radical by 50%. Antioxidant assays were performed in a multiplate reader (Powerwave XS Microplate Reader) of Bio-Tech instruments.
In an embodiment, the DPPH. radical scavenging activity was performed as follows: solutions of the test compounds with increasing concentrations (range between 0 μM and 500 μM) were prepared in ethanol. A DPPH′ ethanolic solution (6.85 mM) was also prepared and then diluted to reach the absorbance of 0.72±0.02 at 515 nm. Each compound solution (20 μL) was added to 180 μL of DPPH′ solution in triplicate, and the absorbance at 515 nm was recorded minutely over 45 minutes. […] Dose-response curves were established for the determination of IC50 values. Data are means±SEM of three independent experiments.

Row | Structure (SMILES) | effect on state 3 respiration [1] | ADP/O ([1]; glutamate/malate, 2.5 μM) | RCR (respiratory control ratio, state 3/state 4) ([1]; glutamate/malate, 2.5 μM) | ADP/O ([1]; glutamate/malate, 5 μM) | RCR (respiratory control ratio, state 3/state 4) ([1]; glutamate/malate, 5 μM) | ADP/O ([1]; glutamate/malate, 10 μM) | RCR (respiratory control ratio, state 3/state 4) ([1]; glutamate/malate, 10 μM) | ADP/O ([1]; succinate, 2.5 μM) | RCR (respiratory control ratio, state 3/state 4) ([1]; succinate, 2.5 μM) | ADP/O ([1]; succinate, 5 μM) | RCR (respiratory control ratio, state 3/state 4) ([1]; succinate, 5 μM) | ADP/O ([1]; succinate, 10 μM) | RCR (respiratory control ratio, state 3/state 4) ([1]; succinate, 10 μM) | reversibility of the oxidation reaction [2] | Ep (redox potential) ([2]; listed as AntiOxClN6, methanesulfonate) [V] | IC50 [3] [µM] | Ep (redox potential) ([2]; listed as AntiOxClN7, methanesulfonate) [V] | toxicity toward the mitochondrial bioenergetic apparatus ([1]; RLM) | Ep (redox potential) [2] [V]
1 | CS(=O)(=O)[O-].O=C(/C=C/c1ccc(O)c(O)c1)NCCCCCCCCCC[P+](c1ccccc1)(c1ccccc1)c1ccccc1 [AntiOxCIN6, (E)-(10-(3-(3,4-dihydroxyphenyl)acrylamido)decyl)triphenylphosphonium methanesulfonate] | increase | 2.5 ± 0.1 | 3.1 ± 0.3 | 2.5 ± 0.2 | 3.3 ± 0.2 | 2.3 ± 0.1 | 2.6 ± 0.1 | 1.5 ± 0.1 | 3.7 ± 0.6 | 1.5 ± 0.1 | 3.2 ± 0.3 | 1.6 ± 0.11 | 2.6 ± 0.3 | reversible reaction | 0.174 | 25.9 |  |  | 
2 | CS(=O)(=O)[O-].O=C(/C=C/c1cc(O)c(O)c(O)c1)NCCCCCCCCCC[P+](c1ccccc1)(c1ccccc1)c1ccccc1 [AntiOxCIN7, (E)-(10-(3-(3,4,5-trihydroxyphenyl)acrylamido)decyl)triphenylphosphonium methanesulfonate] | increase | 2.8 ± 0.3 | 3.6 ± 0.2 | 2.4 ± 0.1 | 3.5 ± 0.3 | 2.6 ± 0.1 | 3.3 ± 0.3 | 1.8 ± 0.2 | 4.1 ± 0.4 | 1.8 ± 0.2 | 3.1 ± 0.2 | 1.7 ± 0.2 | 3.7 ± 0.3 | irreversible oxidation reaction |  | 13.7 | 0.057 |  | 
3 | O=C(O)/C=C/c1ccc(O)c(O)c1 [Caffeic acid, caffeic acid, reference compound] |  |  |  |  |  |  |  |  |  |  |  |  |  | reversible reaction |  | 18.1 |  | low toxicity | 0.168

From patent US10913757B2, “Hydroxycinnamic derivatives, methods and uses thereof” (UNIVERSIDADE DO PORTO, priority 2016, dated 2021)
